{"source": "paper PMC9714824", "about": "“Hexapeptides from mammalian inhibitory hormone hunt activate and inactivate nematode reproduction” (PLOS ONE, 2022)", "key": {"PC3 cells": {"test_system": "PC3 cells", "assay": "MTS colorimetric viable cell assay, PC3", "format": "cell-based, human", "conditions": "for OD below that of EPL001: PC3 time course study", "in_short": "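Cells seeded at 8,000/well, given peptides (14mer to 6mer) at 30 μM final at the outset, triplicate, buffer controls; viable cells by MTS absorbance at 492 nm after 27 h growth. Data as OD mean ± SEM, two-tailed t-test; a 14mer time course on PC3 read at 24 and 48 h.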"}, "[1]": {"test_system": "circulating levels of the anterior pituitary hormones LH, GH and PRL", "assay": "Intracerebroventricular infusion in sheep, RIA of circulating pituitary hormones", "format": "in vivo, Ovis aries", "conditions": "for GH, percentage difference between After and Before / LH, percentage difference between After and Before / PRL, percentage difference between After and Before: ICV 100 μg/h for 24h; for GH, After / LH, After / PRL, After: last 6h of ICV infusion, 100 μg/h for 24h, one sheep, RIA, mean +/− SEM", "experimental": "A sheep study involved randomly selected Corriedale ewes (Ovis aries) of typically 5–6 years of age maintained under natural conditions at the Monash University Sheep Facility, Werribee, Victoria, Australia. EPL001 and EPL030 were subject to intracerebroventricular (ICV) infusion separately in vivo via a permanent cannula into the third ventricle of the brains of one sheep each at 100 μg/h for 24h. The zone that forms the floor of the third ventricle is that part of the hypothalamus called the median eminence. This is the anatomical interface between the brain and the anterior pituitary. Immunostaining in the ovine median eminence, in the form of axonal beading, has been reported with an anti-EPL001 antibody. The aim here was to evaluate the impact on the ovine hypothalamic-pituitary axis of infusion from above the hypothalamus. Circulating levels of the anterior pituitary hormones LH (luteinising hormone), GH (growth hormone) and PRL (prolactin) were measured by radioimmunoassay (RIA) prior to and in the closing stages of infusion. Systemic blood samples from an indwelling jugular venous cannula were taken at 10 min intervals for 6h prior to infusion (‘Before’) and over the last 6h of infusion (‘After’)."}, "[2]": {"assay": "Toxicity study in immunodeficient nude mice", "format": "in vivo, female Balb/c immunodeficient nude mice", "conditions": "for Toxicity: in words; for Maximum weight loss compared to Day 0: groups of 2 mice", "experimental": "For toxicity studies female Balb/c immunodeficient nude mice were used (B & K Universal, Hull, UK), aged 6–8 weeks old. They were housed in cages in isolation cabinets in an air-conditioned room with regular alternating cycles of light and darkness and received Teklad 2018 (Envigo) diet and water ad libitum. EPL001 and EPL030 in PBS at pH7.4 were administered to groups of 2 mice intraperitoneally (i.p.) daily on Days 0–4 at 500 mg/kg/dose and then 1000 mg/kg/dose. Following treatment, body weight was measured on a regular basis, and behaviour and general appearance monitored visually to assess for deleterious effects (e.g. dehydration, impaired mobility, hunched posture, low body temperature, ulceration and significant body weight loss), with any effects during the study recorded. […] If no deleterious effects were seen after at least 16 days of study, then the animals were sacrificed, with the dose considered non-toxic.\nFor toxicity studies female Balb/c immunodeficient nude mice were used (B & K Universal, Hull, UK), aged 6-8 weeks old. They were housed in cages in isolation cabinets in an air-conditioned room with regular alternating cycles of light and darkness and received Teklad 2018 (Envigo) diet and water ad libitum. EPL001 and EPL030 in PBS at pH7.4 were administered to groups of 2 mice intraperitoneally (i.p.) daily on days 0-4 at 500mg/kg/dose and then 1000mg/kg/dose. Following treatment, body weight was measured on a regular basis, and behaviour and general appearance monitored visually to assess for deleterious effects (e.g. dehydration, impaired mobility, hunched posture, low body temperature, ulceration and significant body weight loss), with any effects during the study recorded."}, "[3]": {"test_system": "MCF-7 human breast adenocarcinoma xenografts", "assay": "MCF-7 xenograft study with untreated control (second study)", "format": "in vivo, nude mice", "conditions": "for Tumour growth delay compared to controls: in words; for Max % weight loss / Median RTV2 / Growth delay: second study; for Max % weight loss: 100mg/kg/day i.p.; for Median RTV2: 100mg/kg/day i.p. days 0-17, n=8; for Growth delay: vs untreated control", "experimental": "The MCF-7 human breast adenocarcinoma model was selected for xenograft studies. […] An oestrogen pellet was implanted subcutaneously in the dorsal area 24 hours prior to 2-3mm^3 fragments of MCF-7 tumour taken from donor tumours transplanted subcutaneously in the abdominal flanks of the efficacy study mice. Once tumour volumes reached approximately 32 mm^3 (as measured by calipers, designated treatment Day 0) mice were randomised into one of three groups (n = 8) as follows: EPL001 or EPL030 at 100 mg/kg/day administered i.p. on […], plus a peptide-untreated (PBS only) control group. Tumour volume, using calipers, and animal body weight were recorded throughout the experiment and normalised to the respective tumour volume on the initial day of treatment (Day 0). Mann-Whitney U tests were conducted to determine the statistical significance of any differences in growth rate (based on tumour volume doubling time) between control and treated groups.\nThe MCF-7 human breast adenocarcinoma model was selected for two xenograft studies. An oestrogen pellet was implanted subcutaneously in the dorsal area 24 hours prior to 2-3mm^3 fragments of MCF-7 tumour taken from donor tumours transplanted subcutaneously in the abdominal flanks of the efficacy study mice. Once tumour volumes reached approximately 32 mm^3 (as measured by calipers, designated treatment day 0) mice were randomised into treatment groups (n=8).\nIn the second study three groups were used as follows: EPL001 or EPL030 at 100mg/kg/day administered i.p. on days 0-17, plus an untreated control group.\nTumour volume, using calipers, and animal body weight were recorded throughout the experiment and normalised to the respective volume on the initial day of treatment (day 0). Mann-Whitney U tests were conducted to determine the statistical significance of any differences in growth rate (based on tumour volume doubling time) between control and treated groups."}, "[4]": {"conditions": "500mg/kg/day ip Days 0 to 4, on Day 2"}, "[5]": {"conditions": "1000mg/kg/day ip Days 0 to 4, EPL030 on Day 3, EPL001 on Day 1"}}}
{"sequence": "KLKMNGKNIEPVFT [EPL030, …, scrambled EPL001 control]", "values": [{"measurement": "OD below that of EPL001", "setting": "PC3 cells; 24h", "result": 18.9, "unit": "%"}, {"measurement": "OD below that of EPL001", "setting": "PC3 cells; 48h", "result": 51.3, "unit": "%"}, {"measurement": "GH, percentage difference between After and Before", "setting": "[1]", "result": "+43.8%"}, {"measurement": "LH, percentage difference between After and Before", "setting": "[1]", "result": "+7.4%"}, {"measurement": "PRL, percentage difference between After and Before", "setting": "[1]", "result": "−23.8", "unit": "%"}, {"measurement": "GH, After", "setting": "[1]", "result": "7.82 ± 0.80", "unit": "ng/mL"}, {"measurement": "LH, After", "setting": "[1]", "result": "12.89 ± 3.78", "unit": "ng/mL"}, {"measurement": "PRL, After", "setting": "[1]", "result": "107.03 ± 18.92", "unit": "ng/mL"}, {"measurement": "Toxicity", "setting": "[2]; 500mg/kg/day ip Days 0 to 4", "result": "No discernible toxicity"}, {"measurement": "Maximum weight loss compared to Day 0", "setting": "[2]; [4]", "result": 4.0, "unit": "%"}, {"measurement": "Maximum weight loss compared to Day 0", "setting": "[2]; [5]", "result": 7.0, "unit": "%"}, {"measurement": "Toxicity", "setting": "[2]; 1000mg/kg/day ip Days 0 to 4", "result": "no discernible signs of toxicity"}, {"measurement": "Tumour growth delay compared to controls", "setting": "[3]; 100 mg/kg/day i.p., n = 8", "result": "no statistically significant tumour growth delay"}, {"measurement": "Tumour growth at termination compared with PBS-only controls", "setting": "[3]; 100 mg/kg/day i.p., n = 8, ns", "result": "−20.2", "unit": "%"}, {"measurement": "Max % weight loss", "setting": "[3]", "result": 2.4, "unit": "%"}, {"measurement": "Median RTV2", "setting": "[3]", "result": 3.6, "unit": "days"}, {"measurement": "Growth delay", "setting": "[3]", "result": 0.1, "unit": "days"}]}
{"sequence": "MKPLTGKVKEFNNI [EPL001, 14mer master test peptide …; ovine provenance]", "values": [{"measurement": "Difference in percentage terms between control and test OD means", "setting": "PC3 cells; PC3, 30 μM, 27h, MTS, 492 nm, triplicate", "result": "−0.7", "unit": "%"}, {"measurement": "GH, percentage difference between After and Before", "setting": "[1]", "result": "+25.4%"}, {"measurement": "LH, percentage difference between After and Before", "setting": "[1]", "result": "+13.4%"}, {"measurement": "PRL, percentage difference between After and Before", "setting": "[1]", "result": "−28.5", "unit": "%"}, {"measurement": "GH, After", "setting": "[1]", "result": "3.41 ± 0.63", "unit": "ng/mL"}, {"measurement": "LH, After", "setting": "[1]", "result": "6.48 ± 0.90", "unit": "ng/mL"}, {"measurement": "PRL, After", "setting": "[1]", "result": "95.14 ± 21.62", "unit": "ng/mL"}, {"measurement": "Toxicity", "setting": "[2]; 500mg/kg/day ip Days 0 to 4", "result": "No discernible toxicity"}, {"measurement": "Maximum weight loss compared to Day 0", "setting": "[2]; [4]", "result": 5.0, "unit": "%"}, {"measurement": "Maximum weight loss compared to Day 0", "setting": "[2]; [5]", "result": 3.5, "unit": "%"}, {"measurement": "Toxicity", "setting": "[2]; 1000mg/kg/day ip Days 0 to 4", "result": "no discernible signs of toxicity"}, {"measurement": "Tumour growth delay compared to controls", "setting": "[3]; 100 mg/kg/day i.p., n = 8", "result": "no statistically significant tumour growth delay"}, {"measurement": "Max % weight loss", "setting": "[3]", "result": 0, "unit": "%"}, {"measurement": "Median RTV2", "setting": "[3]", "result": 4.6, "unit": "days"}, {"measurement": "Growth delay", "setting": "[3]", "result": 1.1, "unit": "days"}]}
